Experiment [1] concerns mouse embryonic neural stem cells. In words: qRT-PCR of relative mRNA expression of neuronal markers in mouse embryonic NSC (Examples 4-1, 4-2, 6). Format: cell-based. The conditions noted are these: 1 nM. On the procedure: Isopropanol (Ducsan, GyunggiDo, Korea, cat#. 67-63-0) was added and mixed for RNA isolation, then centrifuged again to remove the supernatant and obtain the pellet. The RNA pellet was resuspended in 75% ethanol (Ducsan, cat#. 64-17-15), centrifuged, and the supernatant removed. The pellet was then resuspended in sterilized triple distilled water to obtain the mRNA, incubated for 10 minutes at 55° C., and stored at −80° C.
Sterilized triple distilled water, […] oligo dT, and 1 mM dNTP were added to the RNA and incubated for 5 minutes at 65° C. This was followed by the addition of 5X First-strand buffer, 10 mM DTT, and M-MLV reverse transcriptase and incubated at 42° C. for 1 hour, then at 72° C. for 15 minutes, and at 4° C. for 30 minutes. The synthesized cDNA was stored at −20° C.
The term relative mRNA expression level signifies that in order to normalize each group's total RNA level, the mRNA expression level of each differentiation marker is divided by the expression level of GAPDH whose expression level is fairly constant across cells, and then the values of each test material are compared with those of the controls (undifferentiated NSC) in each group.
(In qPCR the cycle at which signal appears reflects the starting amount.)

For experiment [2], the system named is 5XFAD mouse. Kind of experiment: Tuj1 expression in the somatosensory cortex (Example 9-1). Format: in vivo. The conditions noted are these: 0.1 mg/kg orally daily for 28 days, vs vehicle. Here is the method:
Anti-Tuj1 antibodies were added to the brain tissue slides of 5XFAD mouse in Example 8 and incubated at 4° C. for 1 day, after which the tissue slides were fluorescently stained by incubating with Fluorescein isothiocyanate (FITC)-secondary antibodies (Invitrogen, cat#. A21121) at room temperature for 1 hour. In FIG. 15, the areas marked with arrows (→) indicate cells stained with Tuj1 and the areas marked with arrowheads (▾) indicate plaques formed by amyloid-beta aggregation. Plaques were present in both vehicle-treated and trametinib-treated groups.

The test system of experiment [3] is mouse embryonic neural stem cells. Kind of experiment: Immunocytochemistry analysis, Tuj1 and DAPI staining (Example 3). It counts as cell-based. The following applies: 10 nM, 4 days. Here is the method:
Tuj1 (Neuron specific class III beta-tubulin) is a neuron specific marker protein, which was conjugated to rhodamine to show fluorescent red, while DAPI binds to the cell DNA and stains the cell nuclei fluorescent blue. […] The medium was removed and the cells were washed with PBS. After fixing with 10% formaldehyde (Sigma cat#. HT501128) at room temperature for 10 minutes, they were washed again with PBS. They were permeabilized with 0.2% Triton X-100 (Sigma, cat#. 93443) at room temperature for 15 minutes, washed with PBS, and incubated with 10% BSA (Sigma, cat#. A2153)+1% normal goat serum (Vector lab, Burlingame, Calif., cat#. S1000) at room temperature for 1 hour. […] The solution was removed, washed with PBS, and incubated at room temperature for 1 hour with the secondary antibody (rhodamine-conjugated antibody) diluted in 1% BSA+1% normal goat serum at a ratio of 1:200. Then, the cells were washed with PBS, incubated with 5 μg/ml DAPI (Sigma, cat#. D9542) for 5 minutes, washed with PBS again, and mounted on a slide glass for analysis with a fluorescent microscope.

[4] abbreviates: 10 nM, 25 nM, 100 nM for 2 days.

On to `CC(=O)Nc1cccc(-n2c(=O)n(C3CC3)c(=O)c3c(Nc4ccc(I)cc4F)n(C)c(=O)c(C)c32)c1` [trametinib, N-(3-{3-cyclopropyl-5-[(2-fluoro-4-iodophenyl)amino]-6,8-dimethyl-2,4,7-trioxo-3,4,6,7-tetrahydropyrido[4,3-d]pyrimidin-1(2H)-yl}phenyl)acetamide], for which, in experiment [1], the “differentiation-inducing effect (Tuj1, TH mRNA)” value is “exerted its differentiation-inducing effect”. In addition, in experiment [1] (setting [4]), the “mRNA expression of GABAergic neuron marker Gad1” value is given as “increased with the increase in concentration of the trametinib added”, the “mRNA expression of cholinergic neuron marker ChAT” value is “increased with the increase in concentration of the trametinib added”, the “mRNA expression of dopaminergic neuron marker TH” value is “increased with the increase in concentration of the trametinib added” and the “mRNA expression of motor neuron marker Isl1” value was “increased with the increase in concentration of the trametinib added”. In addition, the “number of cells stained with Tuj1, somatosensory cortex” value in experiment [2] is on record as “significant increase in the number of cells stained with Tuj1”. Besides, the “neuron differentiation by Tuj1 staining” value in experiment [3] is “showed increasingly active differentiation activity”.

These data come from patent US11147816B2, “Composition for inducing differentiation and protection of neural stem cells and method for inducing neuro-regeneration using the same composition” (GENUV Inc., priority 2016, dated 2021).
